Measurements reported in patent US8618300B2, “Indolizine inhibitors of leukotriene production” (Boehringer Ingelheim International GmbH, priority 2008, dated 2013).

Each compound was assayed against T1, recombinant human FLAP protein (Homo sapiens, UniProt P20292) (assay: FLAP binding assay, Scintillation Proximity Assay, displacement of [125I]L-691,831). Conditions: read-out: hFLAP binding IC50.
T1 construct: made in house; host or cells: Sf9 insect cells (100,000 x g membrane pellet)
T1 sequence (P20292 1-161): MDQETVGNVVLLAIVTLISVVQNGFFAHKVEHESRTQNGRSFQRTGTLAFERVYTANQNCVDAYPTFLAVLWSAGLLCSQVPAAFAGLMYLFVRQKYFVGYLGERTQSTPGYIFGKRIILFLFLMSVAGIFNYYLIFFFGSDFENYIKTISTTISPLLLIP
Protocol: Compounds are assessed for the ability to bind to FLAP in a binding assay that measures compound-specific displacement of an iodinated (^1251) FLAP inhibitor via a Scintillation Proximity Assay format (adapted from S. Charleson et al., Mol. Pharmacol., 1992, 41, 873-879).
Cell pellets produced from sf9 insect cells expressing recombinant human FLAP protein are resuspended in buffer A [15 mM Tris-HCl (pH 7.5), 2 mM MgCl2, 0.3 mM EDTA, 1 mM PMSF]. The cells are lysed with a Dounce homogenizer and the material is centrifuged at 10,000×g for 10 minutes. The supernatant is then collected and centrifuged at 100,000×g for 60 minutes. To prepare membrane protein for an assay, an aliquot of the 100,000×g pellet is resuspended in 1 ml of buffer A, Dounce homogenized, and finally subjected to polytron mixing (30 seconds). Membrane protein (25 μl, 5 μg) is mixed with WGA SPA beads (Amersham) and stirred for 1 h. To an assay plate (Perkin Elmer FlexiPlate) is added 25 μl of test compound prepared in Binding buffer [100 mM Tris (pH 7.5), 140 mM NaCl, 5% glycerol, 2 mM EDTA, 0.5 mM TCEP, 0.05% Tween 20], 25 μl of [^125I]L-691,831 (an iodinated analog of MK-591, Charleson et al. Mol. Pharmacol., 41, 873-879, 1992) and finally 50 μl of the bead/protein mixture. (final concentrations: beads, 200 μg/well; protein, 5 μg/well; [^125I] probe, 0 08 nM/well (17 nCi/well). The plates are shaken for 2 h before reading on a Microbeta plate reader. Non-specific binding is determined by the addition of 10 μM cold L-691,831 compound.
An IC50 of 2 nM was found for `CCC(C)(Cc1c(C(=O)C(C)(C)C)c2cc(OCc3csc(C)n3)ccn2c1C(=O)c1ccc(OC)cc1)C(=O)O` (centres unmarked) [2-({1-(2,2-dimethylpropanoyl)-3-[(4-methoxyphenyl)carbonyl]-7-[(2-methyl-1,3-thiazol-4-yl)methoxy]indolizin-2-yl}methyl)-2-methylbutanoic acid] in this work. An IC50 of 9 nM was found for `CC(C)(C)C(=O)c1c(CC(C)(C)C(=O)O)c(C(=O)c2ccc(Cl)cc2)c2ccc(OCc3nc4ccccc4s3)cn12` [3-[6-(1,3-benzothiazol-2-ylmethoxy)-1-[(4-chlorophenyl)carbonyl]-3-(2,2-dimethylpropanoyl)indolizin-2-yl]-2,2-dimethylpropanoic acid] in this work. An IC50 of 69 nM was found for `COc1nc(COc2ccn3c(C(=O)c4ccc(Cl)cc4)c(CC(C)(C)C(=O)O)c(C(=O)C(C)(C)C)c3c2)cs1` [3-{3-[(4-chlorophenyl)carbonyl]-1-(2,2-dimethylpropanoyl)-7-[(2-methoxy-1,3-thiazol-4-yl)methoxy]indolizin-2-yl}-2,2-dimethylpropanoic acid] in this work. An IC50 of 1 nM was found for `Cc1csc(COc2ccn3c(C(=O)c4cccc(Cl)c4)c(CC(C)(C)C(=O)O)c(C(=O)C(C)(C)C)c3c2)n1` [3-{3-[(3-chlorophenyl)carbonyl]-1-(2,2-dimethylpropanoyl)-7-[(4-methyl-1,3-thiazol-2-yl)methoxy]indolizin-2-yl}-2,2-dimethylpropanoic acid] in this work. An IC50 of 2 nM was found for `Cc1nc(COc2ccn3c(C(=O)c4ccc(Cl)c(C)c4)c(CC(C)(C)C(=O)O)c(C(=O)C(C)(C)C)c3c2)cs1` [3-{3-[(4-chloro-3-methylphenyl)carbonyl]-1-(2,2-dimethylpropanoyl)-7-[(2-methyl-1,3-thiazol-4-yl)methoxy]indolizin-2-yl}-2,2-dimethylpropanoic acid] in this work. An IC50 of 101 nM was found for `Cc1nc(COc2ccn3c(C(=O)c4ccccc4)c(CC(C)(C)C(=O)O)c(C(=O)C(C)(C)C)c3c2)cs1` [3-[1-(2,2-dimethylpropanoyl)-7-[(2-methyl-1,3-thiazol-4-yl)methoxy]-3-(phenylcarbonyl)indolizin-2-yl]-2,2-dimethylpropanoic acid] in this work. An IC50 of 3 nM was found for `COc1ccc(C(=O)c2c(CC(C(=O)O)C(C)C)c(C(=O)C(C)(C)C)c3cc(OCc4cccc(C)n4)ccn23)cc1` (centres unmarked) [2-({1-(2,2-dimethylpropanoyl)-3-[(4-methoxyphenyl)carbonyl]-7-[(6-methylpyridin-2-yl)methoxy]indolizin-2-yl}methyl)-3-methylbutanoic acid] in this work. An IC50 of 90 nM was found for `Cc1nc(COc2ccn3c(C(=O)c4ccc(Cl)cc4)c(CC(C)(C)C(=O)O)c(C(=O)C(C)(C)C)c3c2)no1` in this work. An IC50 of 7 nM was found for `COc1ccc(C(=O)c2c(C[C@@H](C(=O)O)C(C)C)c(C(=O)C(C)(C)C)c3cc(OCc4csc(C)n4)ccn23)cc1` [(2R)-2-({1-(2,2-dimethylpropanoyl)-3-[(4-methoxyphenyl)carbonyl]-7-[(2-methyl-1,3-thiazol-4-yl)methoxy]indolizin-2-yl}methyl)-3-methylbutanoic acid] in this work. An IC50 of 165 nM was found for `CC(C)c1ccn2c(C(=O)c3ccc(-c4cccnc4)cc3)c(CC(C)(C)C(=O)O)c(C(=O)C(C)(C)C)c2c1` [3-[1-(2,2-dimethylpropanoyl)-7-(propan-2-yl)-3-{[4-(pyridin-3-yl)phenyl]carbonyl}indolizin-2-yl]-2,2-dimethylpropanoic acid] in this work. An IC50 of 1 nM was found for `Cc1csc(COc2ccn3c(C(=O)c4ccc(Cl)c(C)c4)c(CC(C)(C)C(=O)O)c(C(=O)C(C)(C)C)c3c2)n1` [3-{3-[(4-chloro-3-methylphenyl)carbonyl]-1-(2,2-dimethylpropanoyl)-7-[(4-methyl-1,3-thiazol-2-yl)methoxy]indolizin-2-yl}-2,2-dimethylpropanoic acid] in this work. An IC50 of 79 nM was found for `CC(C)(C)C(=O)c1c(CC(C)(C)C(=O)O)c(C(=O)c2ccc(Cl)cc2)c2ccc(OCc3ccccn3)cn12` [3-{1-[(4-chlorophenyl)carbonyl]-3-(2,2-dimethylpropanoyl)-6-(pyridin-2-ylmethoxy)indolizin-2-yl}-2,2-dimethylpropanoic acid] in this work. An IC50 of 4 nM was found for `Cc1nc(COc2ccc3c(C(=O)c4ccc(Cl)cc4)c(CC(C)(C)C(=O)NS(C)(=O)=O)c(C(=O)C(C)(C)C)n3c2)cs1` [3-{1-[(4-chlorophenyl)carbonyl]-3-(2,2-dimethylpropanoyl)-6-[(2-methyl-1,3-thiazol-4-yl)methoxy]indolizin-2-yl}-2,2-dimethyl-N-(methylsulfonyl)propanamide] in this work. An IC50 of 67 nM was found for `COc1ccncc1-c1ccc(C(=O)c2c(CC(C)(C)C(=O)O)c(C(=O)C(C)(C)C)c3cc(OCc4ccccn4)ccn23)cc1` [3-[1-(2,2-dimethylpropanoyl)-3-{[4-(4-methoxypyridin-3-yl)phenyl]carbonyl}-7-(pyridin-2-ylmethoxy)indolizin-2-yl]-2,2-dimethylpropanoic acid] in this work. An IC50 of 25 nM was found for `CC(C)(C)C(=O)c1c(CC(C)(C)C(=O)O)c(C(=O)c2ccc(Cl)cc2)n2ccc(OCc3nccs3)cc12` [3-{3-[(4-chlorophenyl)carbonyl]-1-(2,2-dimethylpropanoyl)-7-(1,3-thiazol-2-ylmethoxy)indolizin-2-yl}-2,2-dimethylpropanoic acid] in this work. An IC50 of 1 nM was found for `COc1ccc(C(=O)c2c(CC(C(=O)O)C(C)C)c(C(=O)C(C)(C)C)c3cc(OCc4nc5ccccc5s4)ccn23)cc1` (centres unmarked) [2-({7-(1,3-benzothiazol-2-ylmethoxy)-1-(2,2-dimethylpropanoyl)-3-[(4-methoxyphenyl)carbonyl]indolizin-2-yl}methyl)-3-methylbutanoic acid] in this work. An IC50 of 14 nM was found for `CC(C)(C)C(=O)c1c(CC(C)(C)C(=O)O)c(C(=O)c2ccc(Cl)cc2)c2ccc(OCc3ccc4ccccc4n3)cn12` in this work. An IC50 of 15 nM was found for `CCCC(Cc1c(C(=O)C(C)(C)C)c2cc(OCc3nc(C)cs3)ccn2c1C(=O)c1ccc(Cl)c(Cl)c1)C(=O)O` (centres unmarked) [2-({3-[(3,4-dichlorophenyl)carbonyl]-1-(2,2-dimethylpropanoyl)-7-[(4-methyl-1,3-thiazol-2-yl)methoxy]indolizin-2-yl}methyl)pentanoic acid] in this work. An IC50 of 1 nM was found for `Cc1cccc(COc2ccn3c(C(=O)c4ccc(Cl)c(Cl)c4)c(CC(C)(C)C(=O)O)c(C(=O)C(C)(C)C)c3c2)n1` [3-{3-[(3,4-dichlorophenyl)carbonyl]-1-(2,2-dimethylpropanoyl)-7-[(6-methylpyridin-2-yl)methoxy]indolizin-2-yl}-2,2-dimethylpropanoic acid] in this work. An IC50 of 8 nM was found for `CC(C)(C)C(=O)c1c(CC(C)(C)C(=O)O)c(C(=O)c2ccc(Cl)cc2)n2ccc(OCc3ccc4ccccc4n3)cc12` [3-{3-[(4-chlorophenyl)carbonyl]-1-(2,2-dimethylpropanoyl)-7-(quinolin-2-ylmethoxy)indolizin-2-yl}-2,2-dimethylpropanoic acid] in this work. An IC50 of 111 nM was found for `Cc1nc(COc2ccn3c(C(=O)c4ccc(Cl)c(Cl)c4)c(CC(C)(C)C(=O)O)c(C(=O)C(C)(C)C)c3c2)cs1` [3-{3-[(3,4-dichlorophenyl)carbonyl]-1-(2,2-dimethylpropanoyl)-7-[(2-methyl-1,3-thiazol-4-yl)methoxy]indolizin-2-yl}-2,2-dimethylpropanoic acid] in this work. An IC50 of 316 nM was found for `CC(C)c1ccn2c(C(=O)c3ccc(C(F)(F)F)cc3)c(CC(C)(C)C(=O)O)c(C(=O)C(C)(C)C)c2c1` [3-[1-(2,2-dimethylpropanoyl)-7-(propan-2-yl)-3-{[4-(trifluoromethyl)phenyl]carbonyl}indolizin-2-yl]-2,2-dimethylpropanoic acid] in this work. An IC50 of 17 nM was found for `Cc1cccc(COc2ccn3c(C(=O)c4ccc(Cl)cc4)c(CC(C)(C)C(=O)O)c(C(=O)C(C)(C)C)c3c2)n1` [3-{3-[(4-chlorophenyl)carbonyl]-1-(2,2-dimethylpropanoyl)-7-[(6-methylpyridin-2-yl)methoxy]indolizin-2-yl}-2,2-dimethylpropanoic acid] in this work. An IC50 of 3 nM was found for `CCCC(Cc1c(C(=O)C(C)(C)C)c2cc(OCc3cccc(C)n3)ccn2c1C(=O)c1ccc(Cl)c(C)c1)C(=O)O` (centres unmarked) [2-({3-[(4-chloro-3-methylphenyl)carbonyl]-1-(2,2-dimethylpropanoyl)-7-[(6-methylpyridin-2-yl)methoxy]indolizin-2-yl}methyl)pentanoic acid] in this work. An IC50 of 99 nM was found for `CC(C)(C)C(=O)c1c(CC(C)(C)C(=O)O)c(C(=O)c2ccc(Br)cc2)n2ccc(OCc3ccccn3)cc12` [3-{3-[(4-bromophenyl)carbonyl]-1-(2,2-dimethylpropanoyl)-7-(pyridin-2-ylmethoxy)indolizin-2-yl}-2,2-dimethylpropanoic acid] in this work. An IC50 of 58 nM was found for `COc1c(C)cnc(COc2ccn3c(C(=O)c4ccc(Cl)cc4)c(CC(C)(C)C(=O)O)c(C(=O)C(C)(C)C)c3c2)c1C` [3-{3-[(4-chlorophenyl)carbonyl]-1-(2,2-dimethylpropanoyl)-7-[(4-methoxy-3,5-dimethylpyridin-2-yl)methoxy]indolizin-2-yl}-2,2-dimethylpropanoic acid] in this work.
